Results published in article PMC6292860, “Characterisation of small molecule ligands 4CMTB and 2CTAP as modulators of human FFA2 receptor signalling” (Scientific Reports, 2018).

Legend:
[1] = tested on: intestinal ischemia reperfusion injury (IRI); assay: Mouse model of intestinal ischemia reperfusion injury (superior mesenteric artery occlusion); format: in vivo; settings: for Circulating neutrophil numbers: IRI groups, WT mice; for Circulating neutrophil numbers / Mucosal (villi) damage, histopathological score of H&E-stained ileum / Neutrophil infiltration into the ileum (esterase-stained neutrophils, myeloperoxidase): oral gavage; for Mucosal (villi) damage, histopathological score of H&E-stained ileum / Neutrophil infiltration into the ileum (esterase-stained neutrophils, myeloperoxidase): WT IRI groups; for Circulating neutrophil counts: sham-operated mice, oral gavage 48 h, 24 h and 1 h prior to surgery, mean ± SEM
Description: Specific pathogen-free (SPF) conventional C57BL/6J (WT) mice were obtained from the […] (ARC) and maintained at The University of Queensland Biological Resources Animal Facilities under specific pathogen-free conditions.
FFA2^−/− knockout mice were obtained from Monash University and bred at The University of Queensland Biological Resources Animal Facilities under SPF conditions. Male mice 10–12 weeks weighing 20–30 g were used for all experiments. All experiments were performed in accordance with the guidelines and approval of The University of Queensland Animal Ethics Committee.
After 35 minutes the ligature was removed to allow for a reperfusion period of 150 minutes. […] Mice were orally gavaged with ligand 48 hours, 24 hours and 1 hour prior to surgery. Mice were euthanised and small intestinal tissue or whole blood [collected in 1 mg/mL EDTA and 0.1 mg/mL nafamostat mesylate (FUT-175)] was collected for further analysis.

hFFA2 [2] = target: T1, hFFA2 (Homo sapiens, UniProt O15552); assay: Fluo-4 Direct Ca^2+ flux assay in CHO cells stably expressing hFFA2; format: cell-based; settings: for Ca^2+ response (in words): ligand alone
T1 construct: host or cells: CHO-K1
T1 sequence (O15552 1-330): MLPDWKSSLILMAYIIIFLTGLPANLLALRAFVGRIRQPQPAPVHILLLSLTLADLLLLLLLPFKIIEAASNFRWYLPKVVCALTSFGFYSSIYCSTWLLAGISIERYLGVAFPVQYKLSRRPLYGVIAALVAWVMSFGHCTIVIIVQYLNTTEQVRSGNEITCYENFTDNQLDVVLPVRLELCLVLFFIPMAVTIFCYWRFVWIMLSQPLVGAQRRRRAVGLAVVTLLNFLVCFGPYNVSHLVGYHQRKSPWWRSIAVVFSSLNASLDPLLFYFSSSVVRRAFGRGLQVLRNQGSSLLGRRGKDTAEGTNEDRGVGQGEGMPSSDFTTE
Experimental: (§1) CHO-K1, stably expressing human FFA2 (CHO-FFA2) was purchased from DiscoverX Corporation. CHO-FFA2 cells were cultured in a buffer of Ham’s F12, 10% FBS, 1% penicillin streptomycin and 800 μg/mL of G418 (Geneticin) (Invitrogen Life Technologies). Cells were passaged when 70–80% confluent using 0.05% trypsin with 1 mM EDTA in phosphate-buffered saline (PBS), pH 7.4. All cells in culture, once seeded, were incubated at 37 °C with 5% CO2.
(§2) Fluo-4 Direct assay was preformed according to manufacturer’s instructions with additional wash steps and read on a Fluorescent Imaging Plate Reader (FLIPR) (Molecular Devices, California). Briefly, 10,000 cells were seeded/well in 10 μL of media in a 384 well block with a clear bottom plate and incubated overnight at 37 °C. An equivalent volume of 2x Flou-4 Direct calcium reagent was added to each well and incubated for 30 min at 37 °C and a further 30 min at room temperature. Ligand addition was carried out on the FLIPR instrument whilst fluorescence was measured at excitation 494 nm and emission at 516 nm for five minutes to enable capture of the fast calcium response.

hFFA2 [3] = target: T1, hFFA2; assay: AlphaScreen SureFire pERK1/2 (Thr202/Tyr204) assay in CHO cells stably expressing hFFA2; format: cell-based; settings: for pERK1/2 response (in words): ligand alone; for Emax: CHO
Experimental: as §1
(§3) To measure pERK1/2 we utilised the high throughput AlphaScreen SureFire pERK1/2 (Thr202/Tyr204) Assay Kit (PerkinElmer)[42]. Detection of pERK1/2 is enabled by immuno-sandwich capture of endogenous pERK1/2 in cell lysates. Antibody-coated AlphaScreen beads generate a highly amplified signal when near due to binding of pERK1/2. Cells were seeded at 50,000 cells/well in a 96 well tissue culture plate and incubated for 24 hours at 37 °C. Cells were then incubated in serum free media overnight. Test compounds were added to the cells and incubated for 10 min at room temperature before cells were lysed and assayed for pERK1/2 using the AlphaScreen-based detection kit according to the manufacturer’s protocol (PerkinElmer).

hFFA2 [4] = target: T1, hFFA2; assay: LANCE Ultra cAMP assay, inhibition of forskolin-induced cAMP, in CHO cells stably expressing hFFA2; format: cell-based; settings: for Emax: CHO; for EC50: read-out: cAMP pEC50 (converted)
Experimental: as §1
The LANCE Ultra cAMP homogeneous time resolved resonance energy transfer (TR-FRET) immunoassay (PerkinElmer) provides a highly sensitive and robust method for the detection of cAMP. Briefly, cells were re-suspended in stimulation buffer (1 x HBSS, 5 mM HEPES, 0.5 mM IBMX, 0.1% BSA (pH7.4)) and transferred to 384-proxiplate (PerkinElmer) at a density of 2000 cells/well. Cells were stimulated with agonist and forskolin (5 μM), where appropriate, and incubated for 30 min. EucAMP tracer and ULight-anti-cAMP solutions were added to the cells and incubated for 1 hour at room temperature. Time- resolved FRET signals were measured after excitation at 320 nm on the EnVision. All data were normalized to the functional response obtained with 1.67 mM sodium acetate.

parental CHO-K1 cells = assay: Ca^2+, pERK1/2 and cAMP assays on the parental CHO-K1 cell line (specificity control); format: cell-based, Chinese Hamster; settings: highest concentration of ligand
Experimental: These cells were cultured in Ham’s F12, 10% FBS and 1% penicillin streptomycin. Cells were passaged when 70–80% confluent using 0.05% trypsin: EDTA in phosphate-buffered saline (PBS), pH 7.4. All cells in culture, once seeded, were incubated at 37 °C with 5% CO2.
as §2, §3
The LANCE Ultra cAMP homogeneous time resolved resonance energy transfer (TR-FRET) immunoassay (PerkinElmer) provides a highly sensitive and robust method for the detection of cAMP. […] Time- resolved FRET signals were measured after excitation at 320 nm on the EnVision. […]

FFA2 = tested on: FFA2; parameters: method as in earlier work; settings: cited from earlier work
[5] = 2CTAP + Acetate (2CTAP dose response in the presence of 2 mM acetate, Fig. 6A), read-out: Ca^2+ pEC50 (converted)
[6] = antagonist mode, concentration-dependent decrease in Ca^2+, read-out: Ca^2+ pEC50 (Antagonist) (converted)
[7] = antagonist mode, inhibition of ERK activation by 2 mM acetate, read-out: pERK1/2 pEC50 (Antagonist) (converted)
[8] = + PTX, read-out: pERK1/2 pEC50 (converted)
[9] = + PTX, percentage of the maximal response from acetate
[10] = ligand alone (agonist mode), CHO-hFFA2, expressed as a percentage of the maximal response from acetate
[11] = ligand alone (agonist mode), CHO-hFFA2, read-out: pERK1/2 pEC50 (converted)
[12] = inhibition of forskolin-induced cAMP, ligand alone, expressed as a percentage of the maximal response from acetate
[13] = inhibition of forskolin-induced cAMP, ligand alone (agonist mode), CHO-hFFA2
[14] = ligand alone (agonist mode), CHO-hFFA2
[15] = 4CMTB at 20 µM on an acetate dose response curve
[16] = 4CMTB below 1 µM on an acetate dose response curve

| Compound | Circulating neutrophil numbers [1] | Neutrophil infiltration into the ileum (esterase-stained neutrophils, myeloperoxidase) [1] | EC50 (hFFA2 [2]; [5]) | EC50 (hFFA2 [2]; [6]) | Ca^2+ response (in words) (hFFA2 [2]; CHO-hFFA2) | EC50 (hFFA2 [3]; [7]) | pERK1/2 response (in words) (hFFA2 [3]; CHO-hFFA2) | forskolin-induced cAMP response (in words) (hFFA2 [4]; ligand alone, CHO-hFFA2) | Response in parental CHO-K1 cells (parental CHO-K1 cells) | EC50 (hFFA2 [3]; [8]) | Emax (hFFA2 [3]; [9]) | Emax (hFFA2 [3]; [10]) | EC50 (hFFA2 [3]; [11]) | Emax (hFFA2 [4]; [12]) | EC50 (hFFA2 [4]; [13]) | further results |
| --- | --- | --- | --- | --- | --- | --- | --- | --- | --- | --- | --- | --- | --- | --- | --- | --- |
| O=C(O)CC(C(=O)Nc1nc(-c2ccccc2Cl)cs1)c1ccccc1 (racemic) [R/S-2CTAP, 4-((4-(2-chlorophenyl)thiazole-2-yl)amino)-4oxo-3-phenylbutanoic acid] | comparable to vehicle control IRI-groups | did not reduce neutrophil infiltration below the IRI group | 631 nM | 1000 nM | concentration-dependent decrease in Ca^2+ | 15800 nM | no effect | no effect | No response |  |  |  |  |  |  | Protective effects in IRI in the absence of FFA2 ([1]; FFA2^−/− mice, IRI): abolished; Mucosal (villi) damage, histopathological score of H&E-stained ileum [1]: mucosal damage was significantly reduced; Concentration of maximal response in the GTPγS assay (FFA2): 60 nM |
| CC(C)C(C(=O)Nc1nccs1)c1ccc(Cl)cc1 (racemic) [R/S-4CMTB, 2-(4-chlorophenyl)-3-methyl-N-(thiazole-2-yl)butanamide] |  |  |  |  | did not induce a Ca^2+ response |  |  |  | No response | 20000 nM | 20% | 85% | 1580 nM | 83% | 100 nM |  |
| CC(=O)O [Acetate] |  |  |  |  |  |  |  |  | No response |  |  |  |  |  |  | Ca^2+ pEC50 (hFFA2 [2]; [14]): 3.8; Ca^2+ Emax (hFFA2 [2]; [10]): 100; pERK1/2 pEC50 (hFFA2 [3]; [14]): 3.6; pERK1/2 Emax (hFFA2 [3]; [10]): 100; cAMP pEC50 (hFFA2 [4]; [13]): 3.9; cAMP Emax (hFFA2 [4]; [12]): 100 |
| O=C(O)C[C@@H](C(=O)Nc1nc(-c2ccccc2Cl)cs1)c1ccccc1 [R-2CTAP, 4-((4-(2-chlorophenyl)thiazole-2-yl)amino)-4oxo-3-phenylbutanoic acid] |  |  | 251 nM | 251 nM | decreased Ca^2+ | 2510 nM | no effects | no effects |  |  |  |  |  |  |  |  |
| CC(C)[C@@H](C(=O)Nc1nccs1)c1ccc(Cl)cc1 [R-4CMTB, 2-(4-chlorophenyl)-3-methyl-N-(thiazole-2-yl)butanamide] | comparable to vehicle control IRI-groups | did not reduce neutrophil infiltration below the IRI group |  |  | no effect |  |  |  |  | 20000 nM | 16% | 60% | 10000 nM | 74% | 6310 nM | Circulating neutrophil counts [1]: 0.81 × 10^6 ± 0.11; Allosteric modulation of acetate Ca^2+ response (hFFA2 [2]; [15]): mild effect on the potency of acetate but did not increase the efficacy; Allosteric modulation of acetate Ca^2+ response (hFFA2 [2]; [16]): negative allosteric modulators |
| O=C(O)C[C@H](C(=O)Nc1nc(-c2ccccc2Cl)cs1)c1ccccc1 [S-2CTAP, 4-((4-(2-chlorophenyl)thiazole-2-yl)amino)-4oxo-3-phenylbutanoic acid] |  |  | 1580 nM | 2000 nM | decreased Ca^2+ | 39800 nM | no effects | no effects |  |  |  |  |  |  |  |  |
| CC(C)[C@H](C(=O)Nc1nccs1)c1ccc(Cl)cc1 [S-4CMTB, 2-(4-chlorophenyl)-3-methyl-N-(thiazole-2-yl)butanamide] | comparable to vehicle control IRI-groups | increased neutrophil infiltration into the villi |  |  |  |  |  |  |  | 15800 nM | 22% | 102% | 794 nM | 99% | 158 nM | Mucosal (villi) damage, histopathological score of H&E-stained ileum [1]: did not reduce villi damage; Circulating neutrophil counts [1]: 0.92 × 10^6 ± 0.07; Allosteric modulation of acetate Ca^2+ response (hFFA2 [2]; [15]): increased both the potency and efficacy of acetate; Allosteric modulation of acetate Ca^2+ response (hFFA2 [2]; [16]): negative allosteric modulators; Emax (hFFA2 [2]; [10]): 55%; EC50 (hFFA2 [2]; ligand alone (agonist mode), CHO-hFFA2, read-out: Ca^2+ pEC50 (converted)): 2000 nM |
